Reference: ChEMBL document CHEMBL2413072, “Synthesis and in vitro anticancer studies of novel C-2 arylidene congeners of lantadenes” (2013)

Key:
Assay type in all cases: functional
K562 [1] = experiment: Growth inhibition of human K562 cells assessed as cell growth at 10^-6 M by sulforhodamine B assay; details: read-out: Activity
SF-295 = experiment: Growth inhibition of human SF295 cells assessed as cell growth at 10^-6 M by sulforhodamine B assay; details: read-out: Activity
HOP-92 = experiment: Growth inhibition of human HOP92 cells assessed as cell growth at 10^-6 M by sulforhodamine B assay; details: read-out: Activity
[2] = Growth inhibition of human HCC2998 cells assessed as cell growth at 10^-8 M by sulforhodamine B assay; details: HCC 2998, read-out: Activity
HCT-15 = experiment: Growth inhibition of human HCT15 cells assessed as cell growth at 10^-6 M by sulforhodamine B assay; details: read-out: Activity
U-251 [3] = experiment: Growth inhibition of human U251 cells assessed as cell growth at 10^-6 M by sulforhodamine B assay; details: read-out: Activity
SF-268 = experiment: Growth inhibition of human SF268 cells assessed as cell growth at 10^-7 M by sulforhodamine B assay; details: read-out: Activity
A498 = experiment: Growth inhibition of human A498 cells assessed as cell growth at 10^-4 M by sulforhodamine B assay; details: read-out: Activity
HCT-116 = experiment: Growth inhibition of human HCT116 cells assessed as cell growth at 10^-8 M by sulforhodamine B assay; details: read-out: Activity
OVCAR-3 = experiment: Growth inhibition of human OVCAR3 cells assessed as cell growth at 10^-4 M by sulforhodamine B assay; details: read-out: Activity
MDA-MB-231 [4] = experiment: Growth inhibition of human MDA-MB-231 cells by sulforhodamine B assay
OVCAR-8 = experiment: Growth inhibition of human OVCAR8 cells assessed as cell growth at 10^-4 M by sulforhodamine B assay; details: read-out: Activity
SR = experiment: Growth inhibition of human SR cells by sulforhodamine B assay
MDA-MB-231 [5] = experiment: Growth inhibition of human MDA-MB-231 cells assessed as cell growth at 10^-8 M by sulforhodamine B assay; details: read-out: Activity
786-0 [6] = experiment: Growth inhibition of human 786-0 cells assessed as cell growth at 10^-8 M by sulforhodamine B assay; details: read-out: Activity
NCI-H226 = experiment: Growth inhibition of human NCI-H226 cells assessed as cell growth at 10^-7 M by sulforhodamine B assay; details: read-out: Activity
DU-145 = experiment: Growth inhibition of human DU145 cells assessed as cell growth at 10^-6 M by sulforhodamine B assay; details: read-out: Activity
MOLT-4 = experiment: Growth inhibition of human MOLT4 cells assessed as cell growth at 10^-7 M by sulforhodamine B assay; details: read-out: Activity
K562 [7] = experiment: Growth inhibition of human K562 cells assessed as cell growth at 10^-7 M by sulforhodamine B assay; details: read-out: Activity
UO-31 [8] = experiment: Growth inhibition of human UO31 cells assessed as cell growth at 10^-8 M by sulforhodamine B assay; details: read-out: Activity
OVCAR-5 = experiment: Growth inhibition of human OVCAR5 cells assessed as cell growth at 10^-8 M by sulforhodamine B assay; details: read-out: Activity
SK-OV-3 = experiment: Growth inhibition of human SKOV3 cells assessed as cell growth at 10^-7 M by sulforhodamine B assay; details: read-out: Activity
T47D = experiment: Growth inhibition of human T47D cells assessed as cell growth at 10^-7 M by sulforhodamine B assay; details: read-out: Activity
MCF7 = experiment: Growth inhibition of human MCF7 cells assessed as cell growth at 10^-6 M by sulforhodamine B assay; details: read-out: Activity
Malme-3M = experiment: Growth inhibition of human MALME-3M cells assessed as cell growth at 10^-7 M by sulforhodamine B assay; details: read-out: Activity
786-0 [9] = experiment: Growth inhibition of human 786-0 cells by sulforhodamine B assay
SF-539 = experiment: Growth inhibition of human SF539 cells assessed as cell growth at 10^-7 M by sulforhodamine B assay; details: read-out: Activity
NCI-H322M [10] = experiment: Growth inhibition of human NCI-H322M cells assessed as cell growth at 10^-7 M by sulforhodamine B assay; details: read-out: Activity
PC-3 [11] = experiment: Growth inhibition of human PC3 cells by sulforhodamine B assay
786-0 [12] = experiment: Growth inhibition of human 786-0 cells assessed as cell growth at 10^-6 M by sulforhodamine B assay; details: read-out: Activity
[13] = Growth inhibition of human NCI-ADR-RES cells assessed as cell growth at 10^-8 M by sulforhodamine B assay; details: read-out: Activity
PC-3 [14] = experiment: Growth inhibition of human PC3 cells assessed as cell growth at 10^-7 M by sulforhodamine B assay; details: read-out: Activity
[15] = Growth inhibition of human NCI-ADR-RES cells assessed as cell growth at 10^-4 M by sulforhodamine B assay; details: read-out: Activity
SW-620 = experiment: Growth inhibition of human SW620 cells assessed as cell growth at 10^-6 M by sulforhodamine B assay; details: read-out: Activity
NCI-H322M [16] = experiment: Growth inhibition of human NCI-H322M cells assessed as cell growth at 10^-6 M by sulforhodamine B assay; details: read-out: Activity
NCI-H522 [17] = experiment: Growth inhibition of human NCI-H522 cells assessed as cell growth at 10^-6 M by sulforhodamine B assay; details: read-out: Activity
IGROV-1 = experiment: Growth inhibition of human IGROV1 cells by sulforhodamine B assay
U-251 [18] = experiment: Growth inhibition of human U251 cells by sulforhodamine B assay
RXF 393 = experiment: Growth inhibition of human RXF393 cells assessed as cell growth at 10^-7 M by sulforhodamine B assay; details: read-out: Activity
MDA-MB-468 = experiment: Growth inhibition of human MDA-MB-468 cells assessed as cell growth at 10^-8 M by sulforhodamine B assay; details: read-out: Activity
UO-31 [19] = experiment: Growth inhibition of human UO31 cells assessed as cell growth at 10^-6 M by sulforhodamine B assay; details: read-out: Activity
NCI-H522 [20] = experiment: Growth inhibition of human NCI-H522 cells assessed as cell growth at 10^-8 M by sulforhodamine B assay; details: read-out: Activity
[21] = read-out: LC50 (the source's name)
[22] = read-out: pLC50 (the source's name) (converted)

SMILES: CC(C)=CC(=O)O[C@@H]1CC(C)(C)C[C@H]2C3=CC[C@@H]4[C@@]5(C)CCC(=O)C(C)(C)[C@@H]5CC[C@@]4(C)[C@]3(C)CC[C@@]12C(=O)O
- growth at 1 µM (K562 [1]): 75%
- growth at 1 µM (SF-295): 63%
- growth at 1 µM (HOP-92): 69%
- growth at 0.01 µM [2]: 97%
- growth at 1 µM (HCT-15): 55%
- growth at 1 µM (U-251 [3]): 74%
- growth at 0.1 µM (SF-268): 94%
- growth at 100 µM (A498): -44%
- growth at 0.01 µM (HCT-116): 98%
- growth at 100 µM (OVCAR-3): -73%
- GI50 (MDA-MB-231 [4]; read-out: GI50): 4.03 µM
- CC50 (MDA-MB-231 [4]; [21]): 71.1 µM
- TGI (MDA-MB-231 [4]; read-out: TGI): 21.8 µM
- GI50 (MDA-MB-231 [4]; read-out: pGI50 (converted)): 4.07 µM
- CC50 (MDA-MB-231 [4]; [22]): 70.8 µM
- TGI (MDA-MB-231 [4]; read-out: pTGI (converted)): 21.9 µM
- growth at 100 µM (OVCAR-8): 11%
- GI50 (SR; read-out: GI50): 3.75 µM
- CC50 (SR; [21]): > 100 µM
- TGI (SR; read-out: TGI): 33.8 µM
- GI50 (SR; read-out: pGI50 (converted)): 3.72 µM
- CC50 (SR; [22]): > 100 µM
- TGI (SR; read-out: pTGI (converted)): 33.9 µM
- growth at 0.01 µM (MDA-MB-231 [5]): 96%
- growth at 0.01 µM (786-0 [6]): 99%
- growth at 0.1 µM (NCI-H226): 87%
- growth at 1 µM (DU-145): 90%
- growth at 0.1 µM (MOLT-4): 100%
- growth at 0.1 µM (K562 [7]): 95%
- growth at 0.01 µM (UO-31 [8]): 88%
- growth at 0.01 µM (OVCAR-5): 94%
- growth at 0.1 µM (SK-OV-3): 106%
- growth at 0.1 µM (T47D): 96%
- growth at 1 µM (MCF7): 84%
- growth at 0.1 µM (Malme-3M): 90%
- GI50 (786-0 [9]; read-out: GI50): 3.69 µM
- CC50 (786-0 [9]; [21]): > 100 µM
- TGI (786-0 [9]; read-out: TGI): 20.2 µM
- GI50 (786-0 [9]; read-out: pGI50 (converted)): 3.72 µM
- CC50 (786-0 [9]; [22]): > 100 µM
- TGI (786-0 [9]; read-out: pTGI (converted)): 20 µM
- growth at 0.1 µM (SF-539): 91%
- growth at 0.1 µM (NCI-H322M [10]): 90%
- GI50 (PC-3 [11]; read-out: GI50): 1.55 µM
- CC50 (PC-3 [11]; [21]): > 100 µM
- TGI (PC-3 [11]; read-out: TGI): 89.1 µM
- GI50 (PC-3 [11]; read-out: pGI50 (converted)): 1.55 µM
- CC50 (PC-3 [11]; [22]): > 100 µM
- TGI (PC-3 [11]; read-out: pTGI (converted)): 89.1 µM
- growth at 1 µM (786-0 [12]): 92%
- growth at 0.01 µM [13]: 103%
- growth at 0.1 µM (PC-3 [14]): 86%
- growth at 100 µM [15]: 14%
- growth at 1 µM (SW-620): 83%
- growth at 1 µM (NCI-H322M [16]): 83%
- growth at 1 µM (NCI-H522 [17]): 82%
- GI50 (IGROV-1; read-out: GI50): 5.36 µM
- CC50 (IGROV-1; [21]): > 100 µM
- TGI (IGROV-1; read-out: TGI): 38.4 µM
- GI50 (IGROV-1; read-out: pGI50 (converted)): 5.37 µM
- CC50 (IGROV-1; [22]): > 100 µM
- TGI (IGROV-1; read-out: pTGI (converted)): 38 µM
- GI50 (U-251 [18]; read-out: GI50): 2.9 µM
- CC50 (U-251 [18]; [21]): > 100 µM
- TGI (U-251 [18]; read-out: TGI): 20.7 µM
- GI50 (U-251 [18]; read-out: pGI50 (converted)): 2.88 µM
- CC50 (U-251 [18]; [22]): > 100 µM
- TGI (U-251 [18]; read-out: pTGI (converted)): 20.9 µM
- growth at 0.1 µM (RXF 393): 94%
- growth at 0.01 µM (MDA-MB-468): 92%
- growth at 1 µM (UO-31 [19]): 82%
- growth at 0.01 µM (NCI-H522 [20]): 102%
